This is an account of results in US20100267825A1, “TREATMENT OF SKIN DAMAGE” (Eukarion, Inc., priority 2009, published 2010).

Data set [1] can be described thus: In vitro catalase activity (colorimetric peroxidase/ABTS-coupled assay). The data set is classed as biochemical. The settings on record: relative to C7 (EUK-8) set at 100%, 10 μM compound, 100 μM hydrogen peroxide. How it is done:
The catalase activity of SOD/Catalase mimetics used in the process was determined as previously described by Doctrow et al., 2002, J. Med. Chem. 45, 4549-4558. Briefly, catalase activity was measured by incubating the sample compound with hydrogen peroxide and determining the amount of hydrogen peroxide remaining after a period of time using a colorimetric peroxidase-coupled assay method. 10 μM sample compound and 100 μM hydrogen peroxide in 40 mM sodium phosphate pH 7.4 were incubated together at ambient temperature in a multi-well plate. After the desired reaction period had elapsed, 20 μl of peroxidase/ABTS reagent was added (peroxidase/ABTS reagent contained […] of 50 mM Na phosphate, pH 7.4, 1 mg horseradish peroxidase (1310 U/mg) and 1.6 g ABTS). After five minutes, absorbance at 750 nm was determined.
The amount of hydrogen peroxide remaining was calculated based on a standard curve. To compare rates of catalase reaction, the amount of hydrogen peroxide consumed at 20 minutes was determined.
(rate obtained for SOD/Catalase mimetic)/(rate obtained for C7 (EUK-8))×100%

In data set [2] the test system is radiation-induced apoptosis. The data set is described as follows: Protection against radiation-induced apoptosis / anti-apoptotic activity. The data set is classed as cell-based.
Data set [3] in a line: Cytotoxicity. The data set is classed as cell-based.
[4] abbreviates: salen-metal complexes, pH 7.4, hydrogen peroxide consumed at 20 minutes.
The mark [5] stands for this setting: orally bioavailable metalloporphyrin derivatives, pH 7.4, 20 minutes.

Turning to `[Cl-].[Mn+3].[O-]c1ccccc1C=NCCN=Cc1ccccc1[O-]` [C7 (EUK-8)], the “Relative Catalase Rate” value in data set [1] (setting [4]) was 100%.

As to `CC(=O)[O-].[Mn+3].[O-]c1ccccc1C=NCCN=Cc1ccccc1[O-]` [C31], the “Relative Catalase Rate” value in data set [1] (setting [4]) worked out at 92%.

In the case of `CC(=O)[O-].COc1cccc(C=NCCN=Cc2cccc(OC)c2[O-])c1[O-].[Mn+3]` [C32], the “Relative Catalase Rate” value in data set [1] (setting [4]) is 188%.

Take `CC(=O)[O-].COc1ccc(C=NCCN=Cc2ccc(OC)cc2[O-])c([O-])c1.[Mn+3]` [C33]: in data set [1] (setting [4]), the “Relative Catalase Rate” value is 38%.

For `COc1ccc(C=NCCN=Cc2ccc(OC)cc2[O-])c([O-])c1.[Cl-].[Mn+3]` [C34], the “Relative Catalase Rate” value in data set [1] (setting [4]) is 46%.

For `CC(=O)[O-].COc1cc([O-])c(C=NCCN=Cc2c([O-])cc(OC)cc2OC)c(OC)c1.[Mn+3]` [C35], the “Relative Catalase Rate” value in data set [1] (setting [4]) turned out to be 25%.

For the compound `CC(=O)[O-].[Mn+3].[O-]c1c(F)cccc1C=NCCN=Cc1cccc(F)c1[O-]` [C36], the “Relative Catalase Rate” value in data set [1] (setting [4]) is on record as 128%.

On to `[Cl-].[Mn+3].[O-]c1c(F)cccc1C=NCCN=Cc1cccc(F)c1[O-]` [C37], for which, in data set [1] (setting [4]), the “Relative Catalase Rate” value was 117%.

As for `COc1cccc(C=NCCN=Cc2cccc(OC)c2[O-])c1[O-].[Cl-].[Mn+3]` [C40 (EUK-134)], the “Relative Catalase Rate” value in data set [1] (setting [4]) turned out to be 155%.

For `CC(=O)[O-].COc1cc(Br)c([O-])c(C=Nc2ccccc2N=Cc2cc(OC)cc(Br)c2[O-])c1.[Mn+3]` [C76], in data set [1] (setting [4]), the “Relative Catalase Rate” value is 427%.

Take `COc1cccc(C=Nc2ccccc2N=Cc2cccc(OC)c2[O-])c1[O-].[Cl-].[Mn+3]` [C81]: the “Relative Catalase Rate” value in data set [1] (setting [4]) stood at 493%.

Turning to `CC(=O)[O-].[Mn+3].[O-]c1c2cccc1OCCOCCOCCOc1cccc(c1[O-])C=Nc1ccccc1N=C2` [C82], the “Relative Catalase Rate” value in data set [1] (setting [4]) was 345%.

With `CC(=O)[O-].[Mn+3].[O-]c1ccccc1CNCCNCc1ccccc1[O-]` [C83], the “Relative Catalase Rate” value in data set [1] (setting [4]) is listed as 42%.

For the compound `[Cl-].[Mn+3].[O-]c1ccccc1CNCCNCc1ccccc1[O-]` [C84], the “Relative Catalase Rate” value in data set [1] (setting [4]) amounted to 31%.

For the compound `CC(=NCCN=C(C)c1ccccc1[O-])c1ccccc1[O-].CC(=O)[O-].[Mn+3]` [C85], the “Relative Catalase Rate” value in data set [1] (setting [4]) was found to be 31%.

As for `C1=Cc2nc1cc1ccc([n-]1)c(C1CC1)c1nc(cc3ccc([n-]3)c2C2CC2)C=C1.CC(=O)[O-].[Mn+3]` [EUK-418, {[{(Porphine-5,15-diyl)bis[cyclopropyl-diyl]}] (2-)-N^21, N^22, N^23, N^24} manganese(III) acetate], the “protective effect against radiation-induced apoptosis (in words)” value (“protective effect” below) in data set [2] is “protective effect against radiation-induced apoptosis”. In addition, in data set [1] (setting [5]), the “Relative Catalase Rate” value was determined as 70%.

Turning to `C1=Cc2nc1cc1ccc([n-]1)c(Cc1ccccc1)c1nc(cc3ccc([n-]3)c2Cc2ccccc2)C=C1.CC(=O)[O-].[Mn+3]` [EUK-423, {[{(Porphine-5,15-diyl)bis[benzyl-diyl]}] (2-)-N^21, N^22, N^23, N^24} manganese(III) acetate], the “protective effect” value in data set [2] is given as “protective effect against radiation-induced apoptosis”. For the same compound, in data set [1] (setting [5]), the “Relative Catalase Rate” value was found to be 56%.

As to `CC(=O)[O-].CCc1c2nc(c(CC)c3ccc([n-]3)c(CC)c3nc(c(CC)c4ccc1[n-]4)C=C3)C=C2.[Mn+3]` [EUK-425, (5,10,15,20-Tetraethylporphyrinato) manganese (III) acetate], the “Relative Catalase Rate” value in data set [1] (setting [5]) is 84%.

For the compound `CC(=O)[O-].COc1ccc(-c2c3nc(cc4ccc([n-]4)c(-c4ccc(OC)cc4)c4nc(cc5ccc2[n-]5)C=C4)C=C3)cc1.[Mn+3]` [EUK-450, {[{(Porphine-5,15-diyl)bis[benzene-1,4 diyl (4-methyl-oxy)]}](2-)-N^21, N^22, N^23, N^24} manganese(III) acetate], the “protective effect” value in data set [2] was “protective effect against radiation-induced apoptosis”. For the same compound, the “Relative Catalase Rate” value in data set [1] (setting [5]) was found to be 84%.

On to `C1=Cc2nc1cc1ccc([n-]1)c(C1CCOCC1)c1nc(cc3ccc([n-]3)c2C2CCOCC2)C=C1.[Cl-].[Mn+3]` [EUK-451, {[{(Porphine-5,15-diyl)bis[4-Tetrahydropyrano-diyl]}](2-)-N^21, N^22, N^23, N^24} manganese(III) chloride], for which, in data set [2], the “anti-apoptotic activity (in words)” value is recorded as “high” and the “protective effect” value is listed as “protective effect against radiation-induced apoptosis”. In addition, the “cytotoxicity (in words)” value in data set [3] was “low”. The “Relative Catalase Rate” value in data set [1] (setting [5]) is reported as 140%.

With `C1=Cc2nc1cc1ccc([n-]1)c(C1CCCCC1)c1nc(cc3ccc([n-]3)c2C2CCCCC2)C=C1.[Cl-].[Mn+3]` [EUK-452, {[{(Porphine-5,15-diyl)bis[cyclohexyl-diyl]}] (2-)-N^21, N^22, N^23, N^24} manganese(III) chloride], the “protective effect” value in data set [2] was “protective effect against radiation-induced apoptosis”. The “Relative Catalase Rate” value in data set [1] (setting [5]) came to 105%.
